Assay results reported in US6194399A, “Aryldiamine derivatives useful as antibacterial agents” (Scriptgen Pharmaceuticals, Inc., priority 1999, dated 2001).
pIC50: −log10 of the molar value. ≈ marks a conversion by molar mass, not a printed value. Like-named read-outs stand apart in the source and are kept apart here.

Columns and labels:
[1] = tested on: wild-type S. aureus; experiment: MIC, broth microdilution assay; type: cell-based; conditions: Staphylococcus aureus
Protocol: (§1) The antimicrobial activity of a compound or formulation according to the invention is determined by exposing a culture comprising a bacterial species to different concentrations of the compound or formulation and monitoring the effects on growth relative to a control culture not exposed to the compound. Any method known in the art may be used to assess bacterial growth. Antimicrobial effects are expressed as Minimal Inhibitory Concentration (MIC) and Minimum Bactericidal Concentration (MBC).
(§2) The MIC may be expressed as a range between the concentration at which no growth is observed and the concentration of the dilution which immediately follows.
(§3) Typically, MIC is measured using a broth microdilution assay as follows. Dilution of candidate antimicrobial compounds in culture medium is performed in a sterile, covered 96-well microtiter plate with flat bottom wells (Costar #9017). The final concentrations of the compounds are typically 100, 50, 25, 12.5, 6.25, 3.12, 1.56, 0.78, 0.39, 0.20, 0.10, and 0.05 μg/mL, respectively. Culture medium only (containing no bacteria) is also included as a negative control for each plate. Ampicillin and rifampin are used as positive controls against all bacterial strains in every experiment.
(§4) The overnight culture of a single colony is diluted in sterile medium so that, after inoculation, each well contains approximately 5×10^5CFU/mL. Within 15 minutes of preparation, […] of the adjusted inoculum suspension is added to the microliter plate. Each well is diluted with an equal volume of the antimicrobial compounds or control solution. The inoculated microtiter plate is typically incubated at 35° C. for 16-20 hours. The turbidity of each well is determined by measuring the absorbance at 595 nm using a BioRad Model 3550-UV microplate reader.
(§5) The antimicrobial activities of the compounds of the invention, expressed as MIC and MBC, were determined as described above, using as tester strains wild-type S. aureus, rifampicin-resistant S. aureus, wild-type E. coli, and E. coli cells that had been permeabilized.

[2] = tested on: rifampicin-resistant S. aureus; experiment: MIC, broth microdilution assay; type: cell-based; conditions: Staphylococcus aureus, read-out: MIC rif^R -S. aureus
Protocol: as §1, §2, §3, §4, §5

[3] = tested on: wild-type E. coli; experiment: MIC, broth microdilution assay; type: cell-based; conditions: Escherichia coli
Protocol: as §1, §2, §3, §4, §5

[4] = biological target: purified RNA polymerase derived from E. coli (Escherichia coli, UniProt P0A7Z4+P0A8T7+P0A8V2); experiment: in vitro transcription reaction, RNA polymerase inhibition; type: biochemical
Protocol: (§6) RNA polymerase inhibition activity of a compound can be detected by including the compound in an in vitro transcription reaction and comparing the level of transcription that occurs in the presence and absence of the compound. The RNA polymerase may be from a bacterial source or, as a control, from an animal source. A typical transcription reaction (50μl) contains transcription buffer (50 mM Tris-HCl, pH 8.0, 200 mM KCl, 10 mM MgCl2,10 mM DTT and 1.5 μM BSA); 1 μg of DNA template; 4 μM UTP containing 5 μCi of [α-^2-32 P] UTP; 400 μM each of ATP, GTP, and CTP; and RNA polymerase. After incubation for 60 minutes at 25° C., the reaction is terminated with 100 μl 10% TCA, which also precipitates the newly transcribed RNA, and incorporation of radioactivity into RNA is quantified. The IC50 (expressed in μg/ml) is the concentration of a compound that inhibits RNA polymerase activity by 50%.
(§7) The compounds of the invention were included at a range of concentrations in in vitro transcription reactions containing purified RNA polymerase derived from either S. aureus, E. coli, or human, and template DNA comprising a pTaq promoter. The reaction conditions and analytical method are described above.

[5] = biological target: purified RNA polymerase derived from S. aureus; experiment: as above; type: biochemical
Protocol: as §6, §7

[6] = biological target: human pol II (Homo sapiens, UniProt P24928+P30876); experiment: as above; type: biochemical
Protocol: RNA polymerase inhibition activity of a compound can be detected by including the compound in an in vitro transcription reaction and comparing the level of transcription that occurs in the presence and absence of the compound. The RNA polymerase may be from a bacterial source or, as a control, from an animal source. […] UTP; 400 μM each of ATP, GTP, and CTP; and RNA polymerase. After incubation for 60 minutes at 25° C., the reaction is terminated with 100 μl 10% TCA, which also precipitates the newly transcribed RNA, and incorporation of radioactivity into RNA is quantified.
In vitro and/or in vivo criteria may used to determine specificity. That is, the inhibitory activity of a particular compound towards an animal RNA polymerase may be measured in parallel with a bacterial RNA polymerase.
as §7

[7] = tested on: E. coli cells that had been permeabilized; experiment: MBC determination; type: cell-based; conditions: Escherichia coli
Protocol: as §1
(§8) The minimum bactericidal concentration (MBC) is defined as the concentration of antimicrobial agent from which no colonies grow on petri plates or in the medium. […] Typically, the wells from a MIC microliter plate are made using a 96-well inoculation grid into a fresh microliter plate containing 100 μL Mueller-Hinton broth per well. The MBC plates are incubated at 37° C. for 16-20 hrs and the MBC values are determined.
as §5

[8] = tested on: wild-type S. aureus; experiment: MBC determination; type: cell-based; conditions: Staphylococcus aureus
Protocol: as §1, §8, §5

[9] = tested on: wild-type E. coli; experiment: MBC determination; type: cell-based; conditions: Escherichia coli
Protocol: as §1, §8, §5

[10] = tested on: E. coli cells that had been permeabilized; experiment: MIC, broth microdilution assay; type: cell-based; conditions: Escherichia coli, read-out: MIC E. coli*
Protocol: Within 15 minutes of preparation, […] of the adjusted inoculum suspension is added to the microliter plate.

Sequence of purified RNA polymerase derived from S. aureus (P0A0J0 whole entry): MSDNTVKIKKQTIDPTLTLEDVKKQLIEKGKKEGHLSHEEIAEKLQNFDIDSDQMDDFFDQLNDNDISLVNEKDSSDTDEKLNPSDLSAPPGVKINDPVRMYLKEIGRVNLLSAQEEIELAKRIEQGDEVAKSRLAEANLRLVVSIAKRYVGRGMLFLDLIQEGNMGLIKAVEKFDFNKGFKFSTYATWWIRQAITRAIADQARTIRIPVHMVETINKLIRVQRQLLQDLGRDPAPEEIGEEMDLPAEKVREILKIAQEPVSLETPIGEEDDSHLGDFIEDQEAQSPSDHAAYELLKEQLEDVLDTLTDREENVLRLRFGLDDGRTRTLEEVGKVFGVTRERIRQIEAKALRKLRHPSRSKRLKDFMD
Sequence of purified RNA polymerase derived from S. aureus (P0A8T7 whole entry, further chain): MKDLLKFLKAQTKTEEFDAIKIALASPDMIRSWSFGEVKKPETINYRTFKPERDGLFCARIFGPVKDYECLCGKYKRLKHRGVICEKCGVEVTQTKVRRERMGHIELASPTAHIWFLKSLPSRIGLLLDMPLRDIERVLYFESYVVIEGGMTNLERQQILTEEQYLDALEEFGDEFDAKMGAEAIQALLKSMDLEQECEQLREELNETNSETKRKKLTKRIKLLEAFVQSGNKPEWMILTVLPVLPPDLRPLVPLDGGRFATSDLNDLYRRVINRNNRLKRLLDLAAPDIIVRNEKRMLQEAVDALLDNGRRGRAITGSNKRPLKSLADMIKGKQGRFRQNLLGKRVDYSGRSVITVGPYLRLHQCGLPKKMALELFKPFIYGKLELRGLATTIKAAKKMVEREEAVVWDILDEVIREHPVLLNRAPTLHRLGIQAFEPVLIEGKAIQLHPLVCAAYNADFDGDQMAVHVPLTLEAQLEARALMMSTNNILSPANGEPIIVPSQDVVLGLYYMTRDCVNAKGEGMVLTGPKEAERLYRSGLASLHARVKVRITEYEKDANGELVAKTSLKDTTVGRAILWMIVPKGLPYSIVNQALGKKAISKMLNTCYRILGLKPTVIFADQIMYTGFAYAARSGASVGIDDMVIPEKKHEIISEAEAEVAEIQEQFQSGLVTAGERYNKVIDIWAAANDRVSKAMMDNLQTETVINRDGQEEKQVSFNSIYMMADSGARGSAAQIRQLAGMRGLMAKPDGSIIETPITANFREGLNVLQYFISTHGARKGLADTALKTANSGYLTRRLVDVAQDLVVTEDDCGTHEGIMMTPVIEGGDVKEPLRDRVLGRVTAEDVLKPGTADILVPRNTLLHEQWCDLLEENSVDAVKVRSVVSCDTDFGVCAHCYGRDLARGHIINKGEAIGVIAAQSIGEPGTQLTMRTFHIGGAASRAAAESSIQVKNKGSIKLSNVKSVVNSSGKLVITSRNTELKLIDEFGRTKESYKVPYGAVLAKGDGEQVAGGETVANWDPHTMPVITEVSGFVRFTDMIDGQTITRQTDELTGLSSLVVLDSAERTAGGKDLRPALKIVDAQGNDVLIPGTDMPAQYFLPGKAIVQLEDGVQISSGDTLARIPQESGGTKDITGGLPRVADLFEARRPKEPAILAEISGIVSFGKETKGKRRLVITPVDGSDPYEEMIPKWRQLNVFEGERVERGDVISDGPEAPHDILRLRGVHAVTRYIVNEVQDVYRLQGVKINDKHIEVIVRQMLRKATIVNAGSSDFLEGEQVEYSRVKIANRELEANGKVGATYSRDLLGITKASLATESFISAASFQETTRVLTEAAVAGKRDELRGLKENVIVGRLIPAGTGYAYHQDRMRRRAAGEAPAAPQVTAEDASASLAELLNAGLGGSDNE
Sequence of purified RNA polymerase derived from S. aureus (P0A7Z4 whole entry, further chain): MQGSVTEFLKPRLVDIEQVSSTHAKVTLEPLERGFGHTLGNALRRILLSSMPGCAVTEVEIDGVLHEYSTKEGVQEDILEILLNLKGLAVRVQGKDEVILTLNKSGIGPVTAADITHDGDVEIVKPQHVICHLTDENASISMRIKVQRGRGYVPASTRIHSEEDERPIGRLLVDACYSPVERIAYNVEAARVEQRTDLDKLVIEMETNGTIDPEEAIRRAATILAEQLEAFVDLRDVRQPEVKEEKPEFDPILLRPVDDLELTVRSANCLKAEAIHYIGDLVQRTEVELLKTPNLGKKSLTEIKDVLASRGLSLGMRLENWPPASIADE
Sequence of purified RNA polymerase derived from S. aureus (P0A8V2 whole entry, further chain): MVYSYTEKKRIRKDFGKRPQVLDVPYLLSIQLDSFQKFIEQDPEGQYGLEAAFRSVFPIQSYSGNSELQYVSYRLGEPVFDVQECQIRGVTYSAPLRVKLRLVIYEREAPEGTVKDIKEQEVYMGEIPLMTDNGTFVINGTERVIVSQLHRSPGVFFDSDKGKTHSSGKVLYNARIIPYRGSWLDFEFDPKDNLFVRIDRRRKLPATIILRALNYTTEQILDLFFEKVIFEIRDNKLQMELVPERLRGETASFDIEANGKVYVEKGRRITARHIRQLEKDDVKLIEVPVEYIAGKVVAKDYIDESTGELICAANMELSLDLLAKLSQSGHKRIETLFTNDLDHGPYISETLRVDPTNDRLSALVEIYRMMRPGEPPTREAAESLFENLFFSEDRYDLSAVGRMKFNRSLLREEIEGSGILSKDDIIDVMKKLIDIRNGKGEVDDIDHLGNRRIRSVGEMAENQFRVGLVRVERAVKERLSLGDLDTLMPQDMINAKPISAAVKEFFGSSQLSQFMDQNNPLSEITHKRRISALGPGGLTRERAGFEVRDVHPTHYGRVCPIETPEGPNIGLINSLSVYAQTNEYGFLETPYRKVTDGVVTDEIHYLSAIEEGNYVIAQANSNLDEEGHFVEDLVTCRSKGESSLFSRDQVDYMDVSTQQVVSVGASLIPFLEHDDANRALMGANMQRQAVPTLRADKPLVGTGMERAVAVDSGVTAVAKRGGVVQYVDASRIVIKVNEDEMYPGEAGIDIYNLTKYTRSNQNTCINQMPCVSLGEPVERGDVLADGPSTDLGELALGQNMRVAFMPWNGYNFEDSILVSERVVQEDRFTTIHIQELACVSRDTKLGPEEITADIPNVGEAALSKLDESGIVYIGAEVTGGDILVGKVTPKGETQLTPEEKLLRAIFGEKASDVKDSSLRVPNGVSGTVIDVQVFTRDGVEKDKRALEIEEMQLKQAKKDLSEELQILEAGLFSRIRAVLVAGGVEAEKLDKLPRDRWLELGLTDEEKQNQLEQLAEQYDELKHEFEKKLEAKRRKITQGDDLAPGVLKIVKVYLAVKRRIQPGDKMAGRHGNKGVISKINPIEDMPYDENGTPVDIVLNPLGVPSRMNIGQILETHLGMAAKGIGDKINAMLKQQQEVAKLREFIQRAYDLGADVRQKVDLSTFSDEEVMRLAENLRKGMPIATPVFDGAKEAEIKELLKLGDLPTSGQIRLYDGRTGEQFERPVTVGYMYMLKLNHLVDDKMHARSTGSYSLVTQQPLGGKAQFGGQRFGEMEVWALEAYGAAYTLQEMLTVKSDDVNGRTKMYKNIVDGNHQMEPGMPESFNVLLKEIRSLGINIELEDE

Question: For `CC1(C)S[C@@H]2[C@H](NC(=O)[C@H](N)c3ccccc3)C(=O)N2[C@H]1C(=O)O` [Amp, Ampicillin, reference compound], which MIC [1] is on record?
Answer: Its MIC is 8 mg/L (≈ 22.9 µM).

Question: And the MIC [2]?
Answer: The MIC was 4 mg/L (≈ 11.4 µM).

Question: And the MIC [3]?
Answer: Its MIC is 2 mg/L (≈ 5.72 µM).

Question: What does the source list for `NCCNc1ccc([N+](=O)[O-])c(NCCOc2ccccc2)c1` [Compound (A), N^1-(2-aminoethyl)-4-nitro-N^3-(2-phenoxyethyl)-1,3-benzenediamine]?
Answer: IC50 ([4]; pTaq promoter template DNA, 60 minutes at 25° C., read-out: IC50 E. coli RNA polymerase (converted)): 25.3 µM; IC50 ([5]; pTaq promoter template DNA, 60 minutes at 25° C., read-out: IC50 S. aureus RNA polymerase (converted)): 12.6 µM; selectivity for bacterial RNA polymerase relative to human RNA polymerase ([6]; bacterial (S. aureus, E. coli) versus human RNA polymerase): highest degree of selectivity; IC50 ([6]; pTaq promoter template DNA, 60 minutes at 25° C., read-out: IC50 human pol II (converted)): 316 µM; MIC [1]: 6 mg/L (≈ 19 µM); MIC [2]: 13 mg/L (≈ 41.1 µM); MIC [3]: 13 mg/L (≈ 41.1 µM); MBC [7]: 25 mg/L (≈ 79 µM); MBC [8]: 25 mg/L (≈ 79 µM); MBC [9]: 50 mg/L (≈ 158 µM)

Question: `NCCNc1ccc([N+](=O)[O-])c(N2CCN(c3ccc([N+](=O)[O-])cc3)CC2)c1` [Compound (B)] was tested. Which pIC50 [4] did it give?
Answer: Its pIC50 is 4.63.

Question: What about the pIC50 [5] of the same compound?
Answer: The pIC50 was 4.98.

Question: What about the MIC [10] of the same compound?
Answer: The MIC was 4 mg/L (≈ 10.4 µM).

Question: And the pIC50 [6]?
Answer: Its pIC50 is 3.98.

Question: And the MIC [1]?
Answer: Its MIC is 1 mg/L (≈ 2.59 µM).

Question: And the MIC [2]?
Answer: The MIC was 2 mg/L (≈ 5.18 µM).

Question: And the MIC [3]?
Answer: The MIC was 8 mg/L (≈ 20.7 µM).

Question: What about the MBC [7] of the same compound?
Answer: The MBC was 2 mg/L (≈ 5.18 µM).

Question: And the MBC [8]?
Answer: Its MBC is 8 mg/L (≈ 20.7 µM).

Question: What about the MBC [9] of the same compound?
Answer: Its MBC is 32 mg/L (≈ 82.8 µM).

Question: `CO[C@H]1/C=C/O[C@@]2(C)Oc3c(C)c(O)c4c(O)c(c(/C=N/N5CCN(C)CC5)c(O)c4c3C2=O)NC(=O)/C(C)=C\C=C\[C@H](C)[C@H](O)[C@@H](C)[C@@H](O)[C@@H](C)[C@H](OC(C)=O)[C@@H]1C` [Rif, rifampin, reference compound] was tested. Which MIC [10] did it give?
Answer: The MIC was under 0.03 mg/L.

Question: And the MIC [1]?
Answer: The MIC was under 0.03 mg/L.

Question: And the MIC [2]?
Answer: Its MIC is over 64 mg/L.

Question: And the MIC [3]?
Answer: The MIC was 4 mg/L (≈ 4.86 µM).
